Structures can show the parent of a compound that is named as a salt.

Here are results for 21 molecules from patent US9670221B2, “Furopyridines as bromodomain inhibitors” (GlaxoSmithKline Intellectual Property (No.2) Limited, priority 2013, dated 2017).

The target of this assay is T1, BRD4 BD1 (Homo sapiens, UniProt O60885, Y390A).
T1 construct: BRD4 (1-477) (Y97A) and (Y390A); made in house; host or cells: E. coli (pET15b vector)
Kind of assay: TR-FRET binding assay, BRD4 BD1 (mutant protein). Conditions: BRD4 (1-477) mutant, 10 nM protein, read-out: pIC50 in the BRD4 BD1 assay (converted). The protocol:
Time Resolved Fluorescence Resonance Energy Transfer (TR-FRET) Assay
Binding was assessed using a time resolved fluorescent resonance energy transfer binding assay. This utilises a 6 His purification tag at the N-terminal of the proteins as an epitope for an anti-6 His antibody labeled with Europium chelate (PerkinElmer AD0111) allowing binding of the Europium to the proteins which acts as the donor fluorophore. A small molecule, high affinity binder of the bromodomains BRD2, BRD3, BRD4 and BRDT has been labeled with Alexa Fluor647 (Reference Compound X) and this acts as the acceptor in the FRET pair.
Assay Principle: In the absence of a competing compound, excitation of the Europium causes the donor to emit at λ618 nm which excites the Alexa labelled bromodomain binding compound leading to an increased energy transfer that is measurable at λ647 […]. In the presence of a sufficient concentration of a compound that can bind these proteins, the interaction is disrupted leading to a quantifiable drop in fluorescent resonance energy transfer.
The binding of the compounds of formula (I) to Bromodomains BRD2, BRD3, BRD4 and BRDT was assessed using mutated proteins to detect differential binding to either Binding Domain 1 (BD1) or Binding Domain 2 (BD2) on the bromodomain. These single residue mutations in the acetyl lysine binding pocket greatly lower the affinity of the fluoroligand (Reference Compound X) for the mutated domain (>1000 fold selective for the non-mutated domain). Therefore in the final assay conditions, binding of the fluoroligand to the mutated domain cannot be detected and subsequently the assay is suitable to determine the binding of compounds to the single non-mutated bromodomain.
Protein production: Recombinant Human Bromodomains [(BRD2 (1-473) (Y113A) and (Y386A), BRD3 (1-435) (Y73A) and (Y348A) BRD4 (1-477) (Y97A) and (Y390A) and BRDT (1-397) (Y66A) and (Y309A)] were expressed in E. coli cells (in pET15b vector for BRD2/3/4 and in pET28a vector for BRDT) with a 6-His tag at the N-terminal. The His-tagged Bromodomain pellet was resuspended in 50 mM HEPES (pH7.5), 300 mM NaCl, 10 mM imidazole & 1 μl/mL protease inhibitor cocktail and extracted from the E. coli cells using sonication and purified using a nickel sepharose high performance column, the proteins were washed and then eluted with a linear gradient of 0-500 mM imidazole with buffer 50 mM HEPES (pH7.5), 150 mM NaCl, 500 mM imidazole, over 20 column volumes. Final purification was completed by Superdex 200 prep grade size exclusion column. Purified protein was stored at −80° C. in 20 mM HEPES pH 7.5 and 100 mM NaCl. Protein identity was confirmed by peptide mass fingerprinting and predicted molecular weight confirmed by mass spectrometry.
Protocol for Bromodomain BRD2, 3, 4 and T, BD1^+BD2 mutant assays: All assay components were dissolved in buffer composition of 50 mM HEPES pH7.4, 50 mM NaCl, 5% Glycerol, 1 mM DTT and 1 mM CHAPS. The final concentration of bromodomain proteins were 10 nM and the Alexa Fluor647 ligand was at Kd. These components were premixed and 5 μl of this reaction mixture was added to all wells containing 50 nl of various concentrations of test compound or DMSO vehicle (0.5% DMSO final) in Greiner 384 well black low volume microtitre plates and incubated in dark for 30 minutes at room temperature. 5 μl of detection mixture containing 1.5 nM final concentration anti-6His Europium chelate was added to all wells and a further dark incubation of at least 30 minutes was performed. Plates were then read on the Envision platereader, (λex=317 nm, donor λem=615 nm; acceptor λem=665 nm; Dichroic LANCE dual). Time resolved fluorescent intensity measurements were made at both emission wavelengths and the ratio of acceptor/donor was calculated and used for data analysis. All data was normalized to the mean of 16 high (inhibitor control—Example 11 of WO 2011/054846A1) and 16 low (DMSO) control wells on each plate. […]
`C[C@@H]1CN(S(C)(=O)=O)CCN1Cc1cc2c(=O)n(C)cc(-c3ccncc3OC[C@@H]3CCO3)c2o1` [Example 43, 5-methyl-2-(((R)-2-methyl-4-(methylsulfonyl)piperazin-1-yl)methyl)-7-(3-((S)-oxetan-2-ylmethoxy)pyridin-4-yl)furo[3,2-c]pyridin-4(5H)-one]: the IC50 was ≤ 100 nM. For `C[C@@H]1CN(S(C)(=O)=O)CCN1Cc1cc2c(=O)n(C)cc(-c3ccncc3OC3CC3)c2o1` [Example 73, (R)-7-(3-cyclopropoxypyridin-4-yl)-5-methyl-2-((2-methyl-4-(methylsulfonyl)piperazin-1-yl)methyl)furo[3,2-c]pyridin-4(5H)-one] the value was ≤ 100 nM. Turning to `C[C@@H]1CN(S(C)(=O)=O)CCN1Cc1cc2c(=O)n(C)cc(-c3ccnc(OCC4CC4)c3)c2o1` [Example 23, (R)-7-(2-(cyclopropylmethoxy)pyridin-4-yl)-5-methyl-2-((2-methyl-4-(methylsulfonyl)piperazin-1-yl)methyl)furo[3,2-c]pyridin-4(5H)-one], the IC50 is ≤ 100 nM. Then `Cn1cc(-c2cccc(OCc3ccccc3)c2)c2oc(CN3CCN(S(C)(=O)=O)CC3)cc2c1=O` [Example 3, 7-(3-(benzyloxy)phenyl)-5-methyl-2-((4-(methylsulfonyl)piperazin-1-yl)methyl)furo[3,2-c]pyridin-4(5H)-one], with ≤ 100 nM; and `CC(=O)Nc1cc(-c2cn(C)c(=O)c3cc(CN4CCC(=O)NCC4C)oc23)ccn1` (stereo not drawn) [Example 100, N-(4-(5-methyl-2-((2-methyl-5-oxo-1,4-diazepan-1-yl)methyl)-4-oxo-4,5-dihydrofuro[3,2-c]pyridin-7-yl)pyridin-2-yl)acetamide], with ≤ 100 nM.

As to `COC(C)COc1cnccc1-c1cn(C)c(=O)c2cc(CN3CCN(S(C)(=O)=O)C[C@H]3C)oc12` (stereo partly drawn) [Example 78, 7-(3-(2-methoxypropoxy)pyridin-4-yl)-5-methyl-2-(((R)-2-methyl-4-(methylsulfonyl)piperazin-1-yl)methyl)furo[3,2-c]pyridin-4(5H)-one], the IC50 was ≤ 100 nM. Then `CC(=O)Nc1cccc(-c2cn(C)c(=O)c3cc(CN4CCN(S(C)(=O)=O)C[C@H]4C)oc23)n1` [Example 54, (R)-N-(6-(5-methyl-2-((2-methyl-4-(methylsulfonyl)piperazin-1-yl)methyl)-4-oxo-4,5-dihydrofuro[3,2-c]pyridin-7-yl)pyridin-2-yl)acetamide], with ≤ 100 nM. Then `CC(=O)Nc1cc(-c2cn(C)c(=O)c3cc(CN4CCS(=O)(=O)CC4)oc23)ccn1` [Example 87, N-(4-(2-((1,1-dioxidothiomorpholino)methyl)-5-methyl-4-oxo-4,5-dihydrofuro[3,2-c]pyridin-7-yl)pyridin-2-yl)acetamide], with ≤ 100 nM; and `CC(=O)N(C)c1cc(-c2cn(C)c(=O)c3cc(CN4CCN(S(C)(=O)=O)C[C@H]4C)oc23)ccn1` [Example 30, (R)—N-methyl-N-(4-(5-methyl-2-((2-methyl-4-(methylsulfonyl)piperazin-1-yl)methyl)-4-oxo-4,5-dihydrofuro[3,2-c]pyridin-7-yl)pyridin-2-yl)acetamide], with ≤ 100 nM.

As to `C[C@@H]1CN(S(C)(=O)=O)CCN1Cc1cc2c(=O)n(C)cc(-c3ccnc(OCCN4CCCC4)c3)c2o1` [Example 27, (R)-5-methyl-2-((2-methyl-4-(methylsulfonyl)piperazin-1-yl)methyl)-7-(2-(2-(pyrrolidin-1-yl)ethoxy)pyridin-4-yl)furo[3,2-c]pyridin-4(5H)-one], the IC50 was ≤ 100 nM. Then `Cn1cc(-c2ccnc(OCC3CCOCC3)c2)c2oc(CN3CCN(S(C)(=O)=O)CC3)cc2c1=O` [Example 7, 5-methyl-2-((4-(methylsulfonyl)piperazin-1-yl)methyl)-7-(2-((tetrahydro-2H-pyran-4-yl)methoxy)pyridin-4-yl)furo[3,2-c]pyridin-4(5H)-one], with ≤ 100 nM.

Regarding `CC(=O)Nc1cccc(-c2cn(C)c(=O)c3cc(CN4CCN(S(C)(=O)=O)CC4)oc23)c1` [Example 48, N-(3-(5-methyl-2-((4-(methylsulfonyl)piperazin-1-yl)methyl)-4-oxo-4,5-dihydrofuro[3,2-c]pyridin-7-yl)phenyl)acetamide], the IC50 is ≤ 100 nM. Then `Cn1cc(-c2ccncc2OCC2CC2)c2oc(CN3CCNC(=O)C3)cc2c1=O` [Example 71, 7-(3-(cyclopropylmethoxy)pyridin-4-yl)-5-methyl-2-((3-oxopiperazin-1-yl)methyl)furo[3,2-c]pyridin-4(5H)-one hydrochloride], with ≤ 100 nM; and `Cn1cc(-c2ccncc2NCC2CC2)c2oc(CN3CCN(S(C)(=O)=O)CC3)cc2c1=O` [Example 39, 7-(3-((cyclopropylmethyl)amino)pyridin-4-yl)-5-methyl-2-((4-(methylsulfonyl)piperazin-1-yl)methyl)furo[3,2-c]pyridin-4(5H)-one], with ≤ 100 nM. For `C[C@@H]1CN(S(C)(=O)=O)CCN1Cc1cc2c(=O)n(C)cc(-c3ccncc3OCC3CC3)c2o1` [Example 32, (R)-7-(3-(cyclopropylmethoxy)pyridin-4-yl)-5-methyl-2-((2-methyl-4-(methylsulfonyl)piperazin-1-yl)methyl)furo[3,2-c]pyridin-4(5H)-one] the value was ≤ 10 nM; for `CC(=O)Nc1cc(-c2cn(C)c(=O)c3cc(CN4CC(C)N(S(C)(=O)=O)CC4C)oc23)ccn1` (stereo not drawn) [Example 96, N-(4-(2-((2,5-dimethyl-4-(methylsulfonyl)piperazin-1-yl)methyl)-5-methyl-4-oxo-4,5-dihydrofuro[3,2-c]pyridin-7-yl)pyridin-2-yl)acetamide], ≤ 100 nM. For `CC(=O)Nc1cc(-c2cn(C)c(=O)c3cc(C(C)N4CCN(S(C)(=O)=O)CC4)oc23)ccn1` (stereo not drawn) [Example 36, N-(4-(5-methyl-2-(1-(4-(methylsulfonyl)piperazin-1-yl)ethyl)-4-oxo-4,5-dihydrofuro[3,2-c]pyridin-7-yl)pyridin-2-yl)acetamide, formic acid salt] the value was ≤ 100 nM; for `Cn1cc(-c2cccc(NCc3ccccc3)c2)c2oc(CN3CCN(S(C)(=O)=O)CC3)cc2c1=O` [Example 4, 7-(3-(benzylamino)phenyl)-5-methyl-2-((4-(methylsulfonyl)piperazin-1-yl)methyl)furo[3,2-c]pyridin-4(5H)-one], ≤ 100 nM; for `CC(=O)Nc1cc(-c2cn(C)c(=O)c3cc(CN4CCN(S(C)(=O)=O)[C@@H](C)C4)oc23)ccn1` [Example 108, (S)—N-(4-(5-methyl-2-((3-methyl-4-(methylsulfonyl)piperazin-1-yl)methyl)-4-oxo-4,5-dihydrofuro[3,2-c]pyridin-7-yl)pyridin-2-yl)acetamide], ≤ 100 nM. As for `CCC(=O)Nc1cc(-c2cn(C)c(=O)c3cc(CN4CCN(S(C)(=O)=O)C[C@H]4C)oc23)ccn1` [Example 25, (R)—N-(4-(5-methyl-2-((2-methyl-4-(methylsulfonyl)piperazin-1-yl)methyl)-4-oxo-4,5-dihydrofuro[3,2-c]pyridin-7-yl)pyridin-2-yl)propionamide], the IC50 is ≤ 100 nM. For `Cn1cc(-c2ccncc2OCC2CC2)c2oc(CN3CCCNCC3)cc2c1=O` [Example 55, 2-((1,4-diazepan-1-yl)methyl)-7-(3-(cyclopropylmethoxy)pyridin-4-yl)-5-methylfuro[3,2-c]pyridin-4(5H)-one hydrochloride] the value was ≤ 100 nM.
